Measured values as given in patent US20090030086A1, “ANTIMICROBIAL AGENTS” (priority 2005, published 2009).
Converted amounts (≈) assume the structure as drawn. Read-outs that look alike come from different tables or passages of the source.

Legend:
S. aureus ATCC 29213 [1] = experiment: MBC assay; format: cell-based, Staphylococcus aureus
Protocol: (§1) The staphylococci and enterococci were cultured and maintained on Mueller-Hinton Medium (agar and broth) at pH 7.2; they were incubated aerobically at 37° C. for 24 hours.
(§2) This assay, normally carried out after an MIC assay, determines the minimum concentration of a compound that is lethal to the micro-organism being tested.
(§3) These samples were then individually sub-cultured on non-selective agar medium, under the incubation conditions described above. Following incubation they were examined visually for bacterial growth.
(§4) The following experiments all used S. aureus ATCC 29213 as the test organism. MIC, MBC and DDA assays, as described above, were carried out using a range of different benzoquinones and hydroquinones. Supplemented DDA assays, in the presence of salt, lipid and blood, were also conducted.

S. aureus ATCC 29213 [2] = experiment: Disc diffusion assay (DDA); format: cell-based, Staphylococcus aureus; conditions: for zone of inhibition at 200 µg/disc: Staphylococcus aureus
Protocol: as §1
(§5) A sterile paper disc was impregnated with a sample of the test compound and a minimum of 30 minutes allowed for the solvents to evaporate as far as possible. The disc was then placed on an agar plate onto which the test micro-organism had been inoculated. The plate was then incubated under the conditions described above, following which it was examined visually for signs of bacterial growth. […] The diameter of this zone of “inhibition” was measured using a ProtoCOL™ automated zone sizer (Synbiosis, Cambridge, UK).
(§6) The area of the zone of inhibition was calculated from the measured zone diameter (D) using the formula π(D/2)^2.
(§7) For most DDA assays, 200 μg of each compound was loaded onto each disc.

P. acnes NCTC 737 [3] = experiment: Disc diffusion assay (DDA); format: cell-based, Propionibacterium acnes; conditions: for zone of inhibition at 200 µg/disc: Cutibacterium acnes
Protocol: (§8) The Propionibacterium spp organisms were cultured and maintained on Wilkins-Chalgren Anaerobe Medium (agar and broth) at pH 6.0; cultures were incubated anaerobically at 37° C. for 72 hours.
as §5, §6, §7

P. acnes NCTC 737 [4] = experiment: MBC assay; format: cell-based, Propionibacterium acnes
Protocol: as §8, §2, §3
(§9) MIC, MBC and DDA assays, as described above, were carried out using a range of different benzoquinones and hydroquinones. Supplemented DDA assays, in the presence of salt and lipid, were also conducted.

P. acnes NCTC 737 [5] = experiment: MIC assay; format: cell-based, Propionibacterium acnes
Protocol: 2. Propionibacterium spp.—the principal propionibacterial strain used in these studies was Propionibacterium acnes NCTC 737.
as §8
(§10) This is a standard international method for quantitatively assessing the antimicrobial activity of a compound in a liquid medium. The method used a 96-well microtitre plate, capable of holding about 200 μl of liquid per well. […] The culture media were as described above for the relevant test organisms.
(§11) The wells were inoculated with a liquid suspension of freshly grown micro-organism and incubated under the conditions described above. After incubation, the microtitre plate was examined visually (with the aid of a light box) for cloudiness in each well, which would indicate microbial growth. The MIC value was recorded as the lowest concentration of test compound required to inhibit microbial growth, i.e., the lowest concentration for which the liquid in the well remained clear.
(§12) The assays were conducted in duplicate and included both negative (culture medium only) and positive (culture medium, diluting solvent and inoculum) controls.
as §9

P. acnes NCTC 737 [6] = experiment: Supplemented disc diffusion assay; format: cell-based, Propionibacterium acnes; conditions: for zone of inhibition at 200 µg/disc: Cutibacterium acnes, NCTC737, 72 h; for effect of lipid on antimicrobial activity: activity increases in the presence of lipid
Protocol: as §8, §5
(§13) Performance under these conditions can provide a more reliable indication of activity on topical application. For assays conducted using S. aureus strains, the supplements were defibrinated horse blood (5% v/v), lipid (Tween™ 80 at 1% v/v) and sodium chloride (100 mM). For those using Propionibacterium spp. strains, the supplements were lipid (Tween™ 80 at 1% v/v) and sodium chloride (100 mM).
as §9, §7

S. aureus ATCC 29213 [7] = experiment: MIC assay; format: cell-based, Staphylococcus aureus
Protocol: 1. Staphylococcus aureus—the principal staphylococcal test micro-organism used in these studies was Staphylococcus aureus ATCC 29213. This strain is the one recommended for QC/QA purposes in Minimum Inhibitory Concentration (MIC) assays by the US Clinical and Laboratory Standards Institute (formerly the NCCLS), an FDA-recognised body.
as §1, §10, §11, §12, §4

S. aureus ATCC 29213 [8] = experiment: Supplemented disc diffusion assay; format: cell-based, Staphylococcus aureus; conditions: for zone of inhibition at 200 µg/disc: Staphylococcus aureus, ATCC29213, 24 h
Protocol: as §1, §5, §13, §4, §7

[9] = S. aureus ATCC 29213, unsupplemented agar, 200 μg per disc (thymoquinone 50 μg, 2,6-dimethoxy-p-benzoquinone 100 μg)
[10] = P. acnes NCTC 737, unsupplemented agar, 200 μg per disc (2,6-dimethoxy-p-benzoquinone 100 μg)
[11] = P. acnes NCTC 737, Wilkins-Chalgren broth pH 6.0, anaerobic, 37° C., 72 hours
[12] = P. acnes NCTC 737, Tween 80 at 1% v/v, 200 μg per disc (2,6-dimethoxy-p-benzoquinone 100 μg)
[13] = P. acnes NCTC 737, sodium chloride 100 mM, 200 μg per disc (2,6-dimethoxy-p-benzoquinone 100 μg)
[14] = S. aureus ATCC 29213, Mueller-Hinton broth pH 7.2, aerobic, 37° C., 24 hours
[15] = S. aureus ATCC 29213, Tween 80 at 1% v/v, 200 μg per disc (thymoquinone 50 μg, 2,6-dimethoxy-p-benzoquinone 100 μg)
[16] = S. aureus ATCC 29213, defibrinated horse blood 5% v/v, 200 μg per disc (thymoquinone 50 μg, 2,6-dimethoxy-p-benzoquinone 100 μg)
[17] = S. aureus ATCC 29213, sodium chloride 100 mM, 200 μg per disc (thymoquinone 50 μg, 2,6-dimethoxy-p-benzoquinone 100 μg)
[18] = NCTC737, read-out: DDA (diameter of zone of inhibition)
[19] = Cutibacterium acnes, NCTC737, 72 h, pH 6

| SMILES | MBC (S. aureus ATCC 29213 [1]) [µg/mL] | MIC/MBC ratio (S. aureus ATCC 29213 [1]) | DDA (diameter of zone of inhibition) (S. aureus ATCC 29213 [2]; [9]) [mm] | DDA (diameter of zone of inhibition) (P. acnes NCTC 737 [3]; [10]) [mm] | MBC (P. acnes NCTC 737 [4]; P. acnes NCTC 737) [µg/mL] | MIC/MBC ratio (P. acnes NCTC 737 [4]; P. acnes NCTC 737) | MIC (P. acnes NCTC 737 [5]; [11]) [µg/mL] | DDA + lipid (P. acnes NCTC 737 [6]; [12]) [mm] | DDA + salt (P. acnes NCTC 737 [6]; [13]) [mm] | MIC (S. aureus ATCC 29213 [7]; [14]) [µg/mL] | also measured |
| --- | --- | --- | --- | --- | --- | --- | --- | --- | --- | --- | --- |
| CCCCCCOc1cc(C)c(O)c(C)c1C [1-o-hexyl-2,3,5-trimethyl-p-hydroquinone] | 7.8 (≈ 33 µM) | 0.5 | 8.61 | 16.64 | 31.25 (≈ 132 µM) | 0.5 | 15.6 (≈ 66 µM) | 0.0 | 16.43 | 3.9 (≈ 16.5 µM) | DDA + lipid (S. aureus ATCC 29213 [8]; [15]): 0.0 mm; DDA + blood (S. aureus ATCC 29213 [8]; [16]): 0.0 mm; DDA + salt (S. aureus ATCC 29213 [8]; [17]): 8.72 mm |
| Oc1ccc(O)c(F)c1F [2,3-difluoro-p-hydroquinone] | 15.6 (≈ 107 µM) | 1 | 15.77 | 0.0 | 31.25 (≈ 214 µM) | 0.25 | 7.8 (≈ 53.4 µM) | 0.0 | 0.0 | 15.6 (≈ 107 µM) | DDA + lipid (S. aureus ATCC 29213 [8]; [15]): 14.63 mm; DDA + blood (S. aureus ATCC 29213 [8]; [16]): 10.27 mm; DDA + salt (S. aureus ATCC 29213 [8]; [17]): 15.56 mm |
| COC1=C(OC)C(=O)C(C)=CC1=O [2,3-dimethoxy-5-methyl-p-benzoquinone] | – | 0.5 | – | – | – | 0.5 | – | – | – | – | MBC (S. aureus ATCC 29213 [1]; Staphylococcus aureus, ATCC29213, read-out: MBC): 15.6 µg/mL (≈ 85.6 µM); zone of inhibition at 200 µg/disc (S. aureus ATCC 29213 [2]; ATCC29213, S. aureus ATCC 29213, unsupplemented agar, 200 μg per disc (thymoquinone 50 μg, 2,6-dimethoxy-p-benzoquinone 100 μg), read-out: DDA (diameter of zone of inhibition)): 26.8 mm; zone of inhibition at 200 µg/disc (P. acnes NCTC 737 [3]; NCTC737, P. acnes NCTC 737, unsupplemented agar, 200 μg per disc (2,6-dimethoxy-p-benzoquinone 100 μg), read-out: DDA (diameter of zone of inhibition)): 33.4 mm; MBC (P. acnes NCTC 737 [4]; Cutibacterium acnes, NCTC737, P. acnes NCTC 737, read-out: MBC): 31.2 µg/mL (≈ 172 µM); MIC (P. acnes NCTC 737 [5]; Cutibacterium acnes, NCTC737, P. acnes NCTC 737, Wilkins-Chalgren broth pH 6.0, anaerobic, 37° C., 72 hours, read-out: MIC): 15.6 µg/mL (≈ 85.6 µM); zone of inhibition at 200 µg/disc (P. acnes NCTC 737 [6]; P. acnes NCTC 737, Tween 80 at 1% v/v, 200 μg per disc (2,6-dimethoxy-p-benzoquinone 100 μg), read-out: DDA + lipid): 44 mm; zone of inhibition at 200 µg/disc (P. acnes NCTC 737 [6]; P. acnes NCTC 737, sodium chloride 100 mM, 200 μg per disc (2,6-dimethoxy-p-benzoquinone 100 μg), read-out: DDA + salt): 43.4 mm; effect of lipid on antimicrobial activity (P. acnes NCTC 737 [6]; P. acnes NCTC 737): potentiated; MIC (S. aureus ATCC 29213 [7]; Staphylococcus aureus, ATCC29213, S. aureus ATCC 29213, Mueller-Hinton broth pH 7.2, aerobic, 37° C., 24 hours, read-out: MIC): 7.8 µg/mL (≈ 42.8 µM); zone of inhibition at 200 µg/disc (S. aureus ATCC 29213 [8]; S. aureus ATCC 29213, Tween 80 at 1% v/v, 200 μg per disc (thymoquinone 50 μg, 2,6-dimethoxy-p-benzoquinone 100 μg), read-out: DDA + lipid): 26.5 mm; zone of inhibition at 200 µg/disc (S. aureus ATCC 29213 [8]; S. aureus ATCC 29213, defibrinated horse blood 5% v/v, 200 μg per disc (thymoquinone 50 μg, 2,6-dimethoxy-p-benzoquinone 100 μg), read-out: DDA + blood): 19.9 mm; zone of inhibition at 200 µg/disc (S. aureus ATCC 29213 [8]; S. aureus ATCC 29213, sodium chloride 100 mM, 200 μg per disc (thymoquinone 50 μg, 2,6-dimethoxy-p-benzoquinone 100 μg), read-out: DDA + salt): 25.8 mm |
| Cc1c(O)ccc(O)c1C [2,3-dimethyl-p-hydroquinone] | 7.8 (≈ 56.5 µM) | 1 | 33.41 | 18.75 | – | 0.5 | 7.8 (≈ 56.5 µM) | – | – | 7.8 (≈ 56.5 µM) | – |
| CC1=C(Br)C(=O)C(C(C)C)=C(Br)C1=O [2,5-dibromo-6-isopropyl-3-methyl-p-benzoquinone] | – | 0.5 | – | – | – | 0.25 | – | – | – | – | MBC (S. aureus ATCC 29213 [1]; Staphylococcus aureus, ATCC29213): 1.95 µg/mL (≈ 6.06 µM); zone of inhibition at 200 µg/disc (S. aureus ATCC 29213 [2]; ATCC29213, read-out: DDA (diameter of zone of inhibition)): 39.5 mm; zone of inhibition at 200 µg/disc (P. acnes NCTC 737 [3]; [18]): > 90 mm; MBC (P. acnes NCTC 737 [4]; Cutibacterium acnes, NCTC737): 3.9 µg/mL (≈ 12.1 µM); activity against P. acnes NCTC 737 (in words) (P. acnes NCTC 737 [5]): strongly so; MIC (P. acnes NCTC 737 [5]; [19]): 0.98 µg/mL (≈ 3.04 µM); zone of inhibition at 200 µg/disc (P. acnes NCTC 737 [6]; read-out: DDA + lipid): 34.7 mm; zone of inhibition at 200 µg/disc (P. acnes NCTC 737 [6]; read-out: DDA + salt): 71.2 mm; activity against S. aureus ATCC 29213 (in words) (S. aureus ATCC 29213 [7]): strongly so; MIC (S. aureus ATCC 29213 [7]; Staphylococcus aureus, ATCC29213, 24 h, pH 7.2): 0.98 µg/mL (≈ 3.04 µM); zone of inhibition at 200 µg/disc (S. aureus ATCC 29213 [8]; read-out: DDA + blood): 19.3 mm; zone of inhibition at 200 µg/disc (S. aureus ATCC 29213 [8]; read-out: DDA + lipid): 23 mm; zone of inhibition at 200 µg/disc (S. aureus ATCC 29213 [8]; read-out: DDA + salt): 42.3 mm |
| CCc1cc(O)ccc1O [2-ethyl-p-hydroquinone] | – | 0.5 | 21.06 | 9.90 | – | 0.25 | 7.8 (≈ 56.5 µM) | 0.0 | – | 7.8 (≈ 56.5 µM) | – |
| Cc1cc(O)ccc1O [2-methyl-p-hydroquinone] | – | 1 | 25.70 | 0.0 | 125 (≈ 1010 µM) | 0.5 | 62.5 (≈ 503 µM) | 13.07 | 0.0 | – | – |
| O=C1C(F)=C(F)C(=O)C(F)=C1F [tetrafluoro-p-benzoquinone] | – | – | – | – | – | 0.5 | – | – | – | – | zone of inhibition at 200 µg/disc (P. acnes NCTC 737 [3]; [18]): 25.9 mm; MBC (P. acnes NCTC 737 [4]; Cutibacterium acnes, NCTC737): 250 µg/mL (≈ 1390 µM); activity against P. acnes NCTC 737 (in words) (P. acnes NCTC 737 [5]): strongly so; MIC (P. acnes NCTC 737 [5]; [19]): 125 µg/mL (≈ 694 µM); zone of inhibition at 200 µg/disc (P. acnes NCTC 737 [6]; read-out: DDA + lipid): 30.8 mm; zone of inhibition at 200 µg/disc (P. acnes NCTC 737 [6]; read-out: DDA + salt): 32.4 mm; effect of lipid on antimicrobial activity (P. acnes NCTC 737 [6]; P. acnes NCTC 737): potentiated |
